Assay results reported in ChEMBL document CHEMBL1201862, “PubChem BioAssay data set” (2004).
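Step 1: Grow cells in 96-well plates. Step 2: Expose to compound for 48 hours at 5 concentrations. Step 3: Interpolate endpoints linearly; if unreached, use highest concentration. At the GI50, growth is halved.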 Calls of active or inactive are those of the source. No stated cut-off is given here; in the data, active = GI50 up to about 1.1 µM and inactive = higher.

Key:
Test in all cases: growth of human tumour cells (NCI), 48 h
[1] = tested on: 786-0
[2] = tested on: A498
[3] = tested on: A549
[4] = tested on: ACHN
[5] = tested on: CAKI-1
[6] = tested on: CCRF-CEM
[7] = tested on: COLO 205
[8] = tested on: DLD-1
[9] = tested on: DMS-114
[10] = tested on: DMS-273
[11] = tested on: EKVX
[12] = tested on: HCC 2998
[13] = tested on: HCT-116
[14] = tested on: HL-60
[15] = tested on: HOP-18
[16] = tested on: HOP-92
[17] = tested on: HT-29
[18] = tested on: IGROV-1
[19] = tested on: K562
[20] = tested on: KM12
[21] = tested on: LXFL 529
[22] = tested on: M19-MEL
[23] = tested on: MOLT-4
[24] = tested on: Malme-3M
[25] = tested on: NCI-H226
[26] = tested on: NCI-H23
[27] = tested on: NCI-H460
[28] = tested on: NCI-H522
[29] = tested on: OVCAR-3
[30] = tested on: OVCAR-5
[31] = tested on: OVCAR-8
[32] = tested on: RPMI-8226
[33] = tested on: RXF 393
[34] = tested on: SF-268
[35] = tested on: SF-295
[36] = tested on: SF-539
[37] = tested on: SK-MEL-28
[38] = tested on: SK-MEL-2
[39] = tested on: SK-MEL-5
[40] = tested on: SK-OV-3
[41] = tested on: SN12C
[42] = tested on: SNB-19
[43] = tested on: SNB-75
[44] = tested on: SNB-78
[45] = tested on: SR
[46] = tested on: SW-620
[47] = tested on: TK-10
[48] = tested on: U-251
[49] = tested on: UACC-257
[50] = tested on: UACC-62
[51] = tested on: UO-31

Measured: GI50

N#CCCC[Si]12OCCN(CCO1)CCO2
inactive: [1] > 100 µM | [2] > 100 µM | [3] > 100 µM | [4] > 100 µM | [5] > 100 µM | [6] > 100 µM | [7] > 100 µM | [8] > 100 µM | [9] > 100 µM | [10] > 100 µM | [11] > 100 µM | [12] > 100 µM | [13] > 100 µM | [14] > 100 µM | [15] > 100 µM | [16] > 100 µM | [17] > 100 µM | [18] > 100 µM | [19] > 100 µM | [20] > 100 µM | [21] > 100 µM | [22] > 100 µM | [23] > 100 µM | [24] > 100 µM | [25] > 100 µM | [26] > 100 µM | [27] > 100 µM | [28] > 100 µM | [29] > 100 µM | [30] > 100 µM | [31] > 100 µM | [32] > 100 µM | [33] > 100 µM | [34] > 100 µM | [35] > 100 µM | [36] > 100 µM | [37] > 100 µM | [38] > 100 µM | [39] > 100 µM | [40] > 100 µM | [41] > 100 µM | [42] > 100 µM | [43] > 100 µM | [44] > 100 µM | [45] > 100 µM | [46] > 100 µM | [47] > 100 µM | [48] > 100 µM | [49] > 100 µM | [50] > 100 µM | [51] > 100 µM
